What follows are compounds tested against T1, recombinant human pancreatic GLK (Homo sapiens, UniProt P35557) (assay: biochemical).
T1 sequence (P35557 1-465): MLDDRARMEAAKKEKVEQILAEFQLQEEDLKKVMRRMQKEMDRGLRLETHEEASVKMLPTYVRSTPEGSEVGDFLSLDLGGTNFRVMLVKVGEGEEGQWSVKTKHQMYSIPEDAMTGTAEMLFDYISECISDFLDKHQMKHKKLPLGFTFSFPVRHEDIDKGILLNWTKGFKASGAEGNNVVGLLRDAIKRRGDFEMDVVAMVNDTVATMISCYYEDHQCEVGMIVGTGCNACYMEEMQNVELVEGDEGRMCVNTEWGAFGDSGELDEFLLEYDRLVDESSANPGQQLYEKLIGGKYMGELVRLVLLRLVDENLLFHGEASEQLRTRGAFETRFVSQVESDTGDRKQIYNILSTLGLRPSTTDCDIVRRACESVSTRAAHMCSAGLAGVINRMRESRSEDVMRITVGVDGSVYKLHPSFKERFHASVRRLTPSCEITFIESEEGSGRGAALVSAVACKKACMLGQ
With Cc1cnc(NC(=O)[C@H](COC2CCC2)Oc2ncnc3c2cnn3-c2ccccc2)cn1 [Example 142, (S)-3-cyclobutoxy-N-(5-methylpyrazin-2-yl)-2-(1-phenyl-1H-pyrazolo[3,4-d]pyrimidin-4-yloxy)propanamide] the EC50 was 2400 nM.
For COCCC(Oc1ncnc2c1cnn2-c1ccccc1Cl)C(=O)Nc1ccc(C)cn1 (stereo not drawn) [Example 19, 2-{[1-(2-Chlorophenyl)-1H-pyrazolo[3,4-d]pyrimidin-4-yl]oxy}-4-methoxy-N-(5-methylpyridin-2-yl)butanamide], the EC50 was 95 nM.
Work on CC(=O)NCC(Oc1ncnc2c1cnn2-c1ccccc1Cl)C(=O)Nc1nc(C)cs1 (stereo not drawn) [Example 48, 3-Acetamido-2-{[1-(2-chlorophenyl)-1h-pyrazolo[3,4-d]pyrimidin-4-yl]oxy}-n-(4-methyl-1,3-thiazol-2-yl)propanamide] yielded an EC50 of 11000 nM.
For COCC[C@@H](Oc1ncnc2c1cnn2-c1ccccc1OC)C(=O)Nc1ccc(C)cn1 [Example 23, (R)-4-Methoxy-2-{[1-(2-methoxyphenyl)-1H-pyrazolo[3,4-d]pyrimidin-4-yl]oxy}-N-(5-methylpyridin-2-yl)butanamide], the EC50 was ≥ 100000 nM.
In the case of Cc1cnc(NC(=O)[C@H](COC2CCC2)Oc2ncnc3c2cnn3-c2ncc(Cl)cc2C(F)(F)F)cn1 [Example 138, (2S)-2-[1-[5-chloro-3-(trifluoromethyl)pyridin-2-yl]pyrazolo[4,5-e]pyrimidin-4-yl]oxy-3-cyclobutyloxy-N-(5-methylpyrazin-2-yl)propanamide], the EC50 is reported as 810 nM.
With O=C(Nc1ccc(F)cn1)[C@H](CCO)Oc1ncnc2c1cnn2-c1ncccc1Cl [Example 143d, (2S)-2-[1-(3-chloro-2-pyridyl)pyrazolo[4,5-e]pyrimidin-4-yl]oxy-N-(5-fluoro-2-pyridyl)-4-hydroxy-butanamide] the EC50 was 590 nM.
Work on Cc1ccc(NC(=O)C(Oc2ncnc3c2cnn3-c2ccccc2Cl)C(C)C)nc1 (stereo not drawn) [Example 83, 2-(1-(2-chlorophenyl)-1H-pyrazolo[3,4-d]pyrimidin-4-yloxy)-3-methyl-N-(5-methylpyridin-2-yl)butanamide] yielded an EC50 of 870 nM.
For CCOC[C@H](Oc1ncnc2c1cnn2-c1ncccc1Cl)C(=O)Nc1ccc(S(C)(=O)=O)cn1 [Example 139, (2S)-2-(1-(3-chloropyridin-2-yl)-1H-pyrazolo[3,4-d]pyrimidin-4-yloxy)-3-ethoxy-N-(5-(methylsulfonyl)pyridin-2-yl)propanamide], the EC50 was 1400 nM.
For CNC(=O)CCC(Oc1ncnc2c1cnn2-c1ccccc1Cl)C(=O)Nc1ccc(C)cn1 (stereo not drawn) [Example 51, 2-{[1-(2-chlorophenyl)-1H-pyrazolo[3,4-d]pyrimidin-4-yl]oxy}-N5-methyl-N1-(5-methylpyridin-2-yl)pentanediamide], the EC50 was 4400 nM.
C[C@H](CO)OC[C@H](Oc1ncnc2c1cnn2-c1ncccc1Cl)C(=O)Nc1ccc(C#N)cn1 [Example 189, (2S)-2-(1-(3-chloropyridin-2-yl)-1H-pyrazolo[3,4-d]pyrimidin-4-yloxy)-N-(5-cyanopyridin-2-yl)-3-((R)-1-hydroxypropan-2-yloxy)propanamide] was tested, and the EC50 was 600 nM.
With Cc1nsc(NC(=O)[C@H](COC(C)C)Oc2ncnc3c2cnn3-c2ccccc2Cl)n1 [Example 100, (2S)-2-[1-(2-Chlorophenyl)pyrazolo[4,5-e]pyrimidin-4-yl]oxy-N-(3-methyl-1,2,4-thiadiazol-5-yl)-3-propan-2-yloxypropanamide] the EC50 was 1000 nM.
In the case of COCC[C@@H](Oc1ncnc2c1cnn2-c1ccccc1OC)C(=O)Nc1nc(C)cs1 [Example 36, (R)-4-Methoxy-2-{[1-(2-methoxyphenyl)-1H-pyrazolo[3,4-d]pyrimidin-4-yl]oxy}-N-(4-methyl-1,3-thiazol-2-yl)butanamide], the EC50 is reported as ≥ 100000 nM.
Compound Cc1ccc(NC(=O)[C@H](CO[C@H](C)CO)Oc2ncnc3c2cnn3-c2c(Cl)cccc2C#N)nc1 [Example 175, (2S)-2-(1-(2-chloro-6-cyanophenyl)-1H-pyrazolo[3,4-d]pyrimidin-4-yloxy)-3-((R)-1-hydroxypropan-2-yloxy)-N-(5-methylpyridin-2-yl)propanamide] has an EC50 of 270 nM.
Compound Cc1ccc(NC(=O)C(CCS(C)(=O)=O)Oc2ncnc3c2cnn3-c2ccccc2Cl)nc1 (stereo not drawn) [Example 9, 2-{[1-(2-chlorophenyl)-1H-pyrazolo[3,4-d]pyrimidin-4-yl]oxy}-N-(5-methylpyridin-2-yl)-4-(methylsulfonyl)butanamide] has an EC50 of 520 nM.
In the case of N#Cc1ccc(NC(=O)[C@H](COCCO)Oc2ncnc3c2cnn3-c2ccccc2Cl)nc1 [Example 172, (2S)-2-[1-(2-chlorophenyl)pyrazolo[4,5-e]pyrimidin-4-yl]oxy-N-(5-cyanopyridin-2-yl)-3-(2-hydroxyethoxy)propanamide], the EC50 is reported as 810 nM.
For N#Cc1cccc(Cl)c1-n1ncc2c(O[C@@H](COCCO)C(=O)Nc3ccc(F)cn3)ncnc21 [Example 237, (2S)-2-[1-(2-chloro-6-cyano-phenyl)pyrazolo[3,4-d]pyrimidin-4-yl]oxy-N-(5-fluoro-2-pyridyl)-3-(2-hydroxyethoxy)propanamide], the EC50 was 470 nM.
Work on C[C@H](CO)OC[C@H](Oc1ncnc2c1cnn2-c1ncccc1Cl)C(=O)Nc1ccc(Cl)cn1 [Example 190, (2S)—N-(5-chloropyridin-2-yl)-2-(1-(3-chloropyridin-2-yl)-1H-pyrazolo[3,4-d]pyrimidin-4-yloxy)-3-((R)-1-hydroxypropan-2-yloxy)propanamide] yielded an EC50 of 370 nM.
For CCOC[C@H](Oc1ncnc2c1cnn2-c1cccnc1C)C(=O)Nc1ccc(Cl)cn1 [Example 150, (2S)—N-(5-chloropyridin-2-yl)-3-ethoxy-2-(1-(2-methylpyridin-3-yl)-1H-pyrazolo[3,4-d]pyrimidin-4-yloxy)propanamide], the EC50 was 1000 nM.
